From patent US20220133652A1, “A FORMULATION FOR IMPROVING SEIZURE CONTROL” (ZOGENIX INTERNATIONAL LIMITED, priority 2019, published 2022)

Assays:
[1] = tested on: pattern sensitivity-induced seizures; details: one child; cited from earlier work
[2] = tested on: self-induced photosensitive seizures; details: four cases; cited from earlier work
[3] = Serum samples of patient analyzed for fenfluramine and norfenfluramine; assay type: in vivo, human
Method: (§1) Fenfluramine was administered as an oral solution via a gastric feeding tube at an initial dose of 0.5 mg/kg/day for about 5 days. An echocardiogram was performed to screen for cardiac valve abnormalities (CVD) and/or pulmonary arterial hypertension (PAH) and to establish a baseline for subsequent echocardiograms which will be used to monitor the patient's cardiovascular status over the treatment period, and repeated approximately every 3 months over the next year of continuing fenfluramine administration. […] After 4 days of fenfluramine administration Patient was able to be weaned from general anesthesia without return to seizures and the immediate crisis resolved, however, seizures began to recur after 3 more days without anesthesia and the fenfluramine dosage was adjusted up to 0.8 mg/kg/day and bolus doses of valproate or phenobarbital were administered as needed. The treating physician assessed the patient as having emerged from the SRSE crisis about 2 weeks after initiation of fenfluramine therapy. The patient remains on fenfluramine, along with levetiracetam, clobazam and valproate, and was discharged from the ICU about 1 month (approximately 32 days) after initiation of fenfluramine therapy.

refractory epilepsy = details: dose of 0.5 to 1 mg/kg/day, children; cited from earlier work
[4] = reason for withdrawal from the US market in 1997; cited from earlier work
[5] = tested on: super-refractory status epilepticus; assay: Case study: fenfluramine in patient in medically-induced coma, weaning from general anesthesia; assay type: in vivo, human
Method: Fenfluramine was tested on a patient with an established diagnosis Dravet Syndrome (DS) (February, 2008) and having undergone confirmatory genetic testing, they were hospitalized in November 2018 and had been in an intensive care unit (ICU) under general anesthesia for management of super-refractory status epilepticus. At the beginning of the testing period, they had been in the ICU for around 32 days, and multiple attempts to wean them from anesthetic agents (pentobarbital and ketamine) were unsuccessful, with repetitive and then continuous tonic seizures recurring within hours. Table 1, below, provides a complete list of all anti-epileptic drugs (AEDs) assayed in managing the patient's seizures. Some had been determined to lack efficacy, while those marked as current were still being administered.
After these other AEDs failed, the attending physician tested fenfluramine, beginning on Dec. 19, 2018. A baseline echocardiogram was taken with the patient still in ICU setting. The patient's medications (beyond anesthetic agents) at that time included valproic acid, levetiracetam, clobazam, phenobarbital, ketosis, and VNS therapy, and felbamate was most recently added after failure of the last attempt to withdraw anesthesia.
as §1

SMILES	Effect on self-induced seizures [1]	Response of self-induced photosensitive seizures to treatment [2]	concentration at 20 days after start of dosing ([3]; human, 0.8 mg/kg/day, SUB 001, Visit 1, Timepoint 99, SAE 8 Jan. 2019, fenfluramine oral solution via gastric feeding tube, read-out: Conc. in serum) [ng/mL]	concentration at 21 days after start of dosing ([3]; human, 0.8 mg/kg/day, SUB 001, Visit 2, Timepoint 99, SAE 9 Jan. 2019, fenfluramine oral solution via gastric feeding tube, read-out: Conc. in serum) [ng/mL]	concentration at 22 days after start of dosing ([3]; human, 0.8 mg/kg/day, SUB 001, Visit 3, Timepoint 99, SAE 10 Jan. 2019, fenfluramine oral solution via gastric feeding tube, read-out: Conc. in serum) [ng/mL]	Effect on number of seizures (refractory epilepsy)	Adverse effects associated with use [4]	Duration of administration after which patient was weaned from general anesthesia without return to seizures ([5]; 0.5 mg/kg/day oral solution via gastric feeding tube, adjunctive to other AEDs, one patient) [days]	Time after initiation of therapy until patient assessed as emerged from the SRSE crisis ([5]; 0.5 then 0.8 mg/kg/day, bolus valproate or phenobarbital as needed)	Time without anesthesia until seizures began to recur ([5]; after weaning, at 0.5 mg/kg/day, dose then adjusted up to 0.8 mg/kg/day) [days]	Seizure control in patients with SRSE ([5]; conclusion from the case of patient)	Time after initiation of therapy until discharge from the ICU ([5]; patient remains on fenfluramine with levetiracetam, clobazam and valproate)	Conc. in serum ([3]; SUB 001, Visit 1, Timepoint 99, SAE 8 Jan. 2019, fenfluramine oral solution via gastric feeding tube) [ng/mL]	Conc. in serum ([3]; SUB 001, Visit 2, Timepoint 99, SAE 9 Jan. 2019, fenfluramine oral solution via gastric feeding tube) [ng/mL]	Conc. in serum ([3]; SUB 001, Visit 3, Timepoint 99, SAE 10 Jan. 2019, fenfluramine oral solution via gastric feeding tube) [ng/mL]
CCNC(C)Cc1cccc(C(F)(F)F)c1 (racemic) [Fenfluramine, (RS)-N-ethyl-1-[3-(trifluoromethyl)phenyl]propan-2-amine]	successfully terminated these self-induced seizures	responded to treatment	17.7	17.8	22.2	reduction in the number of seizures	cardiac valvular fibrosis and pulmonary hypertension	4	about 2 weeks	3	improved seizure control	approximately 32 days	–	–	–
CC(N)Cc1cccc(C(F)(F)F)c1 (stereo not drawn) [Norfenfluramine]	–	–	–	–	–	–	–	–	–	–	–	–	23.8	23.1	27.6
